Laboratory results: patent US7648999B2, “Activator for peroxisome proliferator-activated receptor δ” (Nippon Chemiphar Co., Ltd., priority 2007, dated 2010)

What was measured:
PPARα (GAL4-hPPARα LBD) = target: T1, PPARα (GAL4-hPPARα LBD) (Homo sapiens, UniProt Q07869); assay: PPARα transactivation activity (GAL4 chimera luciferase reporter in CV-1 cells); type: cell-based
T1 construct: Receptor expression plasmid (GAL4-hPPARα, LBD GAL4-hPPARγ LBD, GAL4-hPPARδ LBD); expressed in transfected cells; host or cells: CV-1 cells
T1 sequence (Q07869 239-466 limits assumed): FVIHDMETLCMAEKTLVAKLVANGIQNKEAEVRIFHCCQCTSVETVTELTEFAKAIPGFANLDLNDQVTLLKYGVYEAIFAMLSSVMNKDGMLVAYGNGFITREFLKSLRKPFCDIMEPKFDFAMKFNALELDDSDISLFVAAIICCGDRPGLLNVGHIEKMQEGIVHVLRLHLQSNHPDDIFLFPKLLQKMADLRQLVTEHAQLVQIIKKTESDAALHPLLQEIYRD

PPARγ (GAL4-hPPARγ LBD) = target: T2, PPARγ (GAL4-hPPARγ LBD) (Homo sapiens, UniProt P37231); assay: PPARγ transactivation activity (GAL4 chimera luciferase reporter in CV-1 cells); type: cell-based
T2 construct: Receptor expression plasmid (GAL4-hPPARα, LBD GAL4-hPPARγ LBD, GAL4-hPPARδ LBD); expressed in transfected cells; host or cells: CV-1 cells
T2 sequence (P37231 238-503 limits assumed): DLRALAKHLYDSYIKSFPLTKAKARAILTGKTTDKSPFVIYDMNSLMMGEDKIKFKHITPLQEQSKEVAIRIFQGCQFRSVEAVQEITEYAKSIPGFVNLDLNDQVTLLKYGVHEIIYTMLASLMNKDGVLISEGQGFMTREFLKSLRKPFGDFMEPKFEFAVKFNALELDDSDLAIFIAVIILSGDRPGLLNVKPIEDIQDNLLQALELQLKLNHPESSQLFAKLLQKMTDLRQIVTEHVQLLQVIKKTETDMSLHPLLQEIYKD

db/db mice = assay: HDL cholesterol elevating effect in db/db mice; type: in vivo; details: for Ratio of increasing HDL cholesterol (% to control): 10 mg/kg/b.i.d. orally for one week, serum 16 hours after final administration; for HDL cholesterol elevating effect (in words): oral, one week twice daily
Method: HDL cholesterol elevating effect was measured by using db/db mice, which are hereditary obesity mice. The db/db mice (10 weeks old) were divided into groups based on serum HDL cholesterol levels. […] Mice of the control group (to which no agent was administered) were orally given 1% methyl cellulose solution. After 16 hours from the final administration, blood sample was collected, and serum HDL cholesterol level was measured. HDL cholesterol was separated by electrophoresis on agarose gels (Chol/Trig Combo, Helena Laboratories). […] HDL cholesterol levels were calculated from total cholesterol levels and HDL cholesterol/total cholesterol ratios.
Each value represents as % of the control group.

PPARδ (GAL4-hPPARδ LBD) = target: T3, PPARδ (GAL4-hPPARδ LBD) (Homo sapiens, UniProt Q03181); assay: PPARδ transactivation activity (GAL4 chimera luciferase reporter in CV-1 cells); type: cell-based
T3 construct: A chimeric receptor expression plasmid (GAL4-hPPARδ LBD), a reporter plasmid (UASx4-TK-LUC); expressed in transfected cells; host or cells: CV-1 cells
T3 sequence (Q03181 211-439 limits assumed): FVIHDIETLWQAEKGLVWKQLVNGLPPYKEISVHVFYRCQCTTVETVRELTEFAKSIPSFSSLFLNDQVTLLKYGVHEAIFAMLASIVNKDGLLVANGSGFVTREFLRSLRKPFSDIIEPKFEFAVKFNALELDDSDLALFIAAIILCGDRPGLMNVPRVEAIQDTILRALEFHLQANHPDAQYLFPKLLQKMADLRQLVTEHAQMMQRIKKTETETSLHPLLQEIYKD
Method: A chimeric receptor expression plasmid (GAL4-hPPARδ LBD), a reporter plasmid (UASx4-TK-LUC) and β-galactosidase (β-GAL) are transfected into CV-1 cells by utilizing a lipofection reagent DMRIE-C (Life Technologies).
(1) Measurement of PPARα, γ, δ Transactivation Activity
CV-1 cells were obtained from Tohoku University Aging Medical Laboratory, Medical Cell Collection Center. All test compounds were dissolved in dimethylsulfoxide (DMSO). Final concentration of DMSO was 0.1%.
CV-1 cells were seeded in 24 well culture plates at 2×10^5 cells per well, and cultured for 24 hours OPTI-MEM I Reduced Serum Medium (Life Technologies, 500 μL/well) containing 4%-fetal bovine serum (FBS). After washing with OPTI-MEM, transfection mixture (250 μL/well) containing 0.03 μg of GAL4-hPPARδ LBD, 0.25 μg of UASx-4-TK-LUC, 0.35 μg of βGAL, and 2 μL of lipofection reagent, DMRIE-C (Life Technologies) were added. The cells were incubated for 5 hours at 37° C.
The cells were washed and incubated for 40 hours in the presence of the test compound (final concentration was 10^−7M or 10^−6M)
The culture medium was removed and the cells were washed with PBS twice. A solubilizing buffer (100 μL/well) containing 25 mM Tris-PO4 (pH 7.8), 15% v/v glycerol, 2% CHAPS, 1% Lecithin, 1% BSA, 4 mM EGTA (pH 8.0), 8 mM MgCl2, 1 mM DTT was added. After the incubation for 10 minutes at room temperature, a portion (20 μL) of the solution was transferred into a 96-well plate. Subsequently, 100 μL of luciferase substrate solution (Piccagene: available from Nippon Gene Co., Ltd.) was added, and a luminous intensity per one second (luciferase activity) was measured using a microluminoreader (Type MLR-100, Corona Electrics Co., Ltd.). Each luciferase activity was corrected by the transfection efficiency which was calculated from β-galactosidase activity. The assay method of β-galactosidase activity was as follows: A portion (50 μL) of the solubilized sample was transferred into another 96-well plate; 100 μL of ONPG (2-nitrophenyl-β-galactopyranoside) solution was added and incubated for 5 minutes at room temperature. 50 μL of a reaction stopping solution (1M sodium carbonate solution) was added. Then the absorbance at 414 nm was measured.

[1] = compound at 10^−7 M (value without parentheses)
[2] = compound at 10^−6 M (value in parentheses)

Structure (SMILES) | Relative activity for PPAR transactivation, α (PPARα (GAL4-hPPARα LBD); [1]) | Relative activity for PPAR transactivation, γ (PPARγ (GAL4-hPPARγ LBD); [1]) | Relative activity for PPAR transactivation, δ (PPARδ (GAL4-hPPARδ LBD); [1]) | Relative activity for PPAR transactivation, α (PPARα (GAL4-hPPARα LBD); [2]) | Relative activity for PPAR transactivation, γ (PPARγ (GAL4-hPPARγ LBD); [2]) | Relative activity for PPAR transactivation, δ (PPARδ (GAL4-hPPARδ LBD); [2]) | other results
Cc1cc(C(=O)CCc2sc(-c3ccc(C(F)(F)F)cc3)nc2C(C)C)ccc1OC(C)(C)C(=O)O [Example 4, 2-[4-[3-[2-(4-Trifluoromethyl)phenyl-4-isopropyl-5-thiazolyl]propionyl]-2-methylphenoxy]-2-methylpropionic acid] |  |  |  |  |  |  | Relative activity for PPAR transactivation, α (PPARα (GAL4-hPPARα LBD); compound at 10^−7 M, CV-1 cells, 40 hours, positive control 10^−4 M WY-14643 = 100%): 11 % of control; Relative activity for PPAR transactivation, γ (PPARγ (GAL4-hPPARγ LBD); compound at 10^−7 M, CV-1 cells, 40 hours, positive control 10^−5 M Rosiglitazone = 100%): 12 % of control; Ratio of increasing HDL cholesterol (% to control) (db/db mice): 176 % to control; HDL cholesterol elevating effect (in words) (db/db mice): excellent effect of increasing HDL cholesterol; Relative activity for PPAR transactivation, δ (PPARδ (GAL4-hPPARδ LBD); compound at 10^−7 M, CV-1 cells, 40 hours, positive control 10^−4 M L-165041 = 100%): 86 % of control
Cc1cc(C=CCc2sc(-c3ccc(C(F)(F)F)cc3)nc2C(C)C)ccc1OCC(=O)O [Example 10, [4-[3-[4-Isopropyl-2-(4-trifluoromethyl)phenyl-5-thiazolyl]-1-propenyl]-2-methylphenoxy]acetic acid] | 0 % of control | 1 % of control | 67 % of control |  |  |  | Ratio of increasing HDL cholesterol (% to control) (db/db mice): 134 % to control; HDL cholesterol elevating effect (in words) (db/db mice): excellent effect of increasing HDL cholesterol
CC(C)c1nc(-c2ccc(C(F)(F)F)cc2)sc1CCC(=O)c1ccc(OC(C)(C)C(=O)O)c(Cl)c1 [Example 34, [4-[3-[2-(4-Trifluoromethyl)phenyl-4-isopropyl-5-thiazolyl]propionyl]-2-chlorophenoxy]-2-methylpropionic acid] | 5 % of control | 3 % of control | 66 % of control |  |  |  | 
Cc1cc(C(=O)CCc2nc(-c3ccc(C(F)(F)F)cc3)sc2C(C)C)ccc1OC(C)(C)C(=O)O [Example 38, 2-[4-[3-[5-Isopropyl-2-(4-trifluoromethyl)phenyl-4-thiazolyl]propionyl]-2-methylphenoxy]-2-methylpropionic acid] |  |  |  | (3) % of control | (9) % of control | (69) % of control | 
Cc1cc(C(=O)CCc2sc(-c3ccc(C(F)(F)F)cc3)nc2C(C)C)ccc1OC(C)C(=O)O (stereo not shown) [Example 43, 2-[4-[3-[4-Isopropyl-2-(4-trifluoromethyl)phenyl-5-thiazolyl]propionyl]-2-methylphenoxy]propionic acid] | 3 % of control | 5 % of control | 42 % of control |  |  |  | 
CCCCCCc1nc(-c2ccc(C(F)(F)F)cc2)sc1CCC(=O)c1ccc(C)c(OC(C)(C)C(=O)O)c1 [Example 46, 2-[5-[3-[4-Hexyl-2-(4-trifluoromethyl)phenyl-5-thiazolyl]propionyl]-2-methylphenoxy]-2-methylpropionic acid] |  |  |  | (78) % of control | (69) % of control | (46) % of control | 

Now from value to compound, other results behind:

Relative activity for PPAR transactivation, α (PPARα (GAL4-hPPARα LBD); [1]) | Relative activity for PPAR transactivation, γ (PPARγ (GAL4-hPPARγ LBD); [1]) | Relative activity for PPAR transactivation, δ (PPARδ (GAL4-hPPARδ LBD); [1]) | Relative activity for PPAR transactivation, α (PPARα (GAL4-hPPARα LBD); [2]) | Relative activity for PPAR transactivation, γ (PPARγ (GAL4-hPPARγ LBD); [2]) | Relative activity for PPAR transactivation, δ (PPARδ (GAL4-hPPARδ LBD); [2]) | Structure (SMILES) | other results
90 % of control | 20 % of control | 49 % of control |  |  |  | CCCCCCc1nc(-c2ccc(C(F)(F)F)cc2)sc1CC=Cc1ccc(OC(C)(C)C(=O)O)c(C)c1 [Example 45, 2-[4-[3-[4-Hexyl-2-(4-trifluoromethyl)phenyl-5-thiazolyl]-1-propenyl]-2-methylphenoxy]-2-methylpropionic acid] | 
0 % of control | 0 % of control | 57 % of control |  |  |  | CCc1nc(-c2ccc(C(F)(F)F)cc2)sc1CCC(=O)c1ccc(OCC(=O)O)c(C)c1 [Example 47, [4-[3-[4-Ethyl-2-(4-trifluoromethyl)phenyl-5-thiazolyl]propionyl]-2-methylphenoxy]acetic acid] | 
 |  |  | (84) % of control | (13) % of control | (51) % of control | CCc1nc(-c2ccc(C(F)(F)F)cc2)sc1CCC(=O)c1ccc(OC(C)(C)C(=O)O)c(C)c1 [Example 48, 2-[4-[3-[4-Ethyl-2-(4-trifluoromethyl)phenyl-5-thiazolyl]propionyl]-2-methylphenoxy]-2-methylpropionic acid] | 
